The values below come from US20210128457A1 (priority 2019, published 2021).

Read-outs that look alike come from different tables or passages of the source.

The subject of series [1] is cochlear hair cells. The experiment in a line: Gentamicin distribution in cochlear hair cells, RWS versus transcanal USM. As to conditions: stood 3 minutes without ultrasound.
Excerpt: Because phalloidin binds to the cytoskeletal actin, it is used to mark the location of hair cells. […] Merge column is the overlay of the left two columns, it is more obvious to see the distribution of gentamicin in the cochlea. […] The green dots indicated the uptake of gentamicin in the hair cells.
Series [2] is classed as in vitro ADME. An excerpt:
In order to understand the effect of ultrasound transcranial administration (behind the ear) to release the drug through the round window membrane (single-membrane), and the effect of ultrasound transcanal administration to release the drug through the eardrum and the round window membrane (two-membranes), 3D-printed material extrusion was used for designing three drug delivery devices:
M1: single-membrane group (FIGS. 5A to 5C), a dialysis membrane 80 was sandwiched between the donor end 10 (Donor area) and the receiving end 20 (Receptor area) for mimicking the position of the round window membrane.
M1-20°: single-membrane with tilt group, the round window membrane of the guinea pig's ear was not perpendicular to the ear canal, so the ultrasonic probe originally perpendicular to the donor end 10 was tilted at an angle of about 20 degrees (FIG. 5C) to make the experiment more realistic. That is, after the top of the ultrasonic probe was placed at the surface center of saline in the donor end 10, the angle between the long axis direction of the ultrasonic probe and the long axis direction of the device was about 20 degrees.
M1+B: The single-membrane transcranial group (FIG. 5D) differed from the single-membrane group in that the skull 90 was placed on top of the donor end 10; and
M2: two-membranes group (FIGS. 5E to 5F), the dialysis membranes 80 were respectively sandwiched between the donor end 10 and the interval chamber 30 of the device, and between the interval chamber 30 and the receiving end 20, where the donor end 10 simulated the external ear canal, the interval chamber 30 simulated the middle ear cavity, and the receiving end 20 simulated the inner ear.
The above groups simulated the actual guinea pig's ear structure and the volume in each area. The printing material was polyethylene terephthalate (PETG). A suitable molecular weight (Orange scientific, OrDial D-Clean, MW=1000) was chosen for the dialysis membrane 80 to separate the sample from the tested drug. About 400 μL of saline was injected into the receiving end 20 to simulate the actual inner ear lymph fluid volume of the guinea pig. […] The experiment samples were injected to the donor end 10 of the single-membrane group, the single-membrane transcranial group and the single-membrane with tilt group, and were injected to the interval chamber 30 of the two-membranes group, to mimic the volume of the middle ear cavity in the middle ear cavity of the guinea pigs. The single-membrane group and the two-membranes group were subjected to 3 W/cm^2 ultrasonic waves for 3 times (1 minute each time), while the single-membrane transcranial group blocked by the skull 90 was extended to 3 times (3 minutes each time) to ensure inducing the cavitation. […] In each group, saline in the receiving end 20 before the experiment, saline in the donor end 10 or the interval chamber 30 after the experiment, and saline in the receiving end 20 after the experiment were sampled for detecting fluorescence value.

Series [3] is classed as in vivo, guinea pigs. The conditions noted are these: guinea pig. An excerpt: Pigmented guinea pigs with normal sound reflection (Preyer's reflex) were used. The experimental group was divided into the following four groups:
The structure of the ear includes an outer ear 110, a middle ear 120, an inner ear 130, a tympanic membrane 140, and a round window membrane 150. The outer ear 110 includes an external ear canal 111, the middle ear 120 includes auditory ossicles 121 and a middle ear cavity 122, and the inner ear 130 includes a cochlea 131. The ultrasonic device 210 was placed in the external ear canal 111, and the ultrasound waves were generated by an ultrasonic device 210. The ultrasound waves were transmitted to the middle ear cavity 122 and induced the cavitation on the microbubbles 220 located in the middle ear cavity 122.
3 W/cm^2 ultrasound was administered three times (3 minutes each time) at the mark place, and the solution in the middle ear cavity was replaced every time.
After the animal experiment (n=4), the animals were sacrificed and the tympanic bullae were taken out. About 10 μL of perilymph fluid was collected and centrifuged. The supernatant was diluted at a ratio of 1:100 for detecting fluorescence value.
After the animal experiment had finished (n=4), the animals were sacrificed and the tympanic bullae were taken out. About 10 μL of perilymph fluid was collected and centrifuged. The supernatant was diluted at a ratio of 1:100 for detecting fluorescence value.

As for Gentamicin, in series [1], the “gentamicin uptake in hair cells (green fluorescence), second turn and third turn” value is given as “did not found the dot-like fluorescence”.
As for biotin-FITC, the “ratio of permeability USM/RWS” value in series [2] (M1+B single-membrane transcranial group) was “about 3.74 folds”; in series [2] (M1-20° single-membrane with tilt group), “about 5.67 folds”; in series [2] (M1 single-membrane group), “about 6.91 folds”; in series [2] (M2 two-membranes group) it was “about 4.77 folds”. The “relative fluorescence units of saline in the receiving end” value in series [2] (M1+B single-membrane transcranial group, RWS) is recorded as 631.5±21.12 RFU; in series [2] (M1+B single-membrane transcranial group, USM, 3 W/cm^2, 3 times 3 minutes), 2362±64.91 RFU; in series [2] (M1-20° single-membrane with tilt group, RWS), 309.7±20.54 RFU; in series [2] (M1-20° single-membrane with tilt group, USM), 1756.3±76.29 RFU; in series [2] (M1 single-membrane group, USM, 3 W/cm^2, 3 times 1 minute), 2726.3±79.97 RFU; in series [2] (M1 single-membrane group, round window soaking (RWS)) it was 394.5±5.3 RFU. For the same substance, the “relative fluorescence units of saline in the receiving end” value in series [2] (M2 two-membranes group, RWS) was found to be 285.7±7.45 RFU; in series [2] (M2 two-membranes group, USM, 3 W/cm^2, 3 times 1 minute) it was 1363.7±56.66 RFU. Besides, the “relative fluorescence units of perilymph fluid” value in series [3] (RWS group A, stood 3 minutes without ultrasound) was determined as 1633.33±72.63 RFU; in series [3] (RWS group B, stood 9 minutes without ultrasound), 6700±69.74 RFU; in series [3] (transcanal group (USM), 3 W/cm^2, 3 times 1 minute), 4206.83±202.93 RFU; in series [3] (transcranial group (USM), 3 W/cm^2, 3 times 3 minutes), 10113±338.8 RFU. In addition, the “ratio of permeability transcanal USM/RWS group A” value in series [3] is recorded as “about 2.83 folds”. Moreover, the “ratio of permeability transcranial USM/RWS group B” value in series [3] is reported as “about 1.5 folds”.
